Assay results: the supplement of paper PMC10307832

How the values were obtained:
Experiment in all cases: relative viability (nuclei count vs DMSO), 5 days (fraction); higher = more cells survive
AGI-6780 + Lapatinib = compound: O=C(Nc1cccc(C(F)(F)F)c1)Nc1cc(S(=O)(=O)NC2CC2)ccc1-c1ccsc1 [AGI-6780] + CS(=O)(=O)CCNCc1ccc(-c2ccc3ncnc(Nc4ccc(OCc5cccc(F)c5)c(Cl)c4)c3c2)o1 [Lapatinib] (partner 2 µM)
Procedure, shortened: (§1)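 The day after seeding in 1536-well plates, lung cancer cell lines were treated by pin tool with a single drug, or with a fixed anchor-drug dose together with five library-drug doses (not always all listed) in √10 steps. After 5 days, a combined fix-and-stain solution (final 0.05% Triton X-100, 1% formaldehyde, 1 ug/ml Hoechst) was added. Nuclei counted on 4× images gave relative viability as treated counts over vehicle counts, reported as the median of duplicate plates.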

AGI-6780 + Crizotinib = compound: O=C(Nc1cccc(C(F)(F)F)c1)Nc1cc(S(=O)(=O)NC2CC2)ccc1-c1ccsc1 [AGI-6780] + C[C@@H](Oc1cc(-c2cnn(C3CCNCC3)c2)cnc1N)c1c(Cl)ccc(F)c1Cl [Crizotinib] (partner 1 µM)
Procedure, shortened: as §1

AGI-6780 + Tozasertib = compound: O=C(Nc1cccc(C(F)(F)F)c1)Nc1cc(S(=O)(=O)NC2CC2)ccc1-c1ccsc1 [AGI-6780] + Cc1cc(Nc2cc(N3CCN(C)CC3)nc(Sc3ccc(NC(=O)C4CC4)cc3)n2)n[nH]1 [Tozasertib] (partner 0.1 µM)
Procedure, shortened: as §1

AGI-6780 + Decitabine = compound: O=C(Nc1cccc(C(F)(F)F)c1)Nc1cc(S(=O)(=O)NC2CC2)ccc1-c1ccsc1 [AGI-6780] + Nc1ncn([C@H]2C[C@H](O)[C@@H](CO)O2)c(=O)n1 [Decitabine] (partner 2 µM)
Procedure, shortened: as §1

| Cell Line | relative viability (AGI-6780 + Lapatinib; first compound 0.08 µM) | relative viability (AGI-6780 + Lapatinib; first compound 0.253 µM) | relative viability (AGI-6780 + Lapatinib; first compound 0.8 µM) | relative viability (AGI-6780 + Lapatinib; first compound 2.53 µM) | relative viability (AGI-6780 + Lapatinib; first compound 8 µM) | relative viability (AGI-6780 + Crizotinib; first compound 0.08 µM) | relative viability (AGI-6780 + Crizotinib; first compound 0.253 µM) | relative viability (AGI-6780 + Crizotinib; first compound 0.8 µM) | relative viability (AGI-6780 + Crizotinib; first compound 2.53 µM) | relative viability (AGI-6780 + Crizotinib; first compound 8 µM) | relative viability (AGI-6780 + Tozasertib; first compound 0.08 µM) | relative viability (AGI-6780 + Tozasertib; first compound 0.253 µM) | relative viability (AGI-6780 + Tozasertib; first compound 0.8 µM) | relative viability (AGI-6780 + Tozasertib; first compound 2.53 µM) | relative viability (AGI-6780 + Tozasertib; first compound 8 µM) | relative viability (AGI-6780 + Decitabine; first compound 0.08 µM) | relative viability (AGI-6780 + Decitabine; first compound 0.253 µM) | relative viability (AGI-6780 + Decitabine; first compound 0.8 µM) | relative viability (AGI-6780 + Decitabine; first compound 2.53 µM) | relative viability (AGI-6780 + Decitabine; first compound 8 µM) |
| --- | --- | --- | --- | --- | --- | --- | --- | --- | --- | --- | --- | --- | --- | --- | --- | --- | --- | --- | --- | --- |
| NCI-H1651 | 0.83 | 0.911 | 0.959 | 0.805 | 1.04 | 0.821 | 0.902 | 0.898 | 0.878 | 0.879 | 0.785 | 0.601 | 0.591 | 0.429 | 0.693 | 0.557 | 0.627 | 0.619 | 0.535 | 0.653 |
| NCI-H1666 | 0.784 | 0.597 | 0.578 |  | 0.73 | 1.09 | 0.897 | 1.03 |  | 1.05 | 0.603 | 0.616 | 0.611 | 0.503 | 0.563 | 0.665 | 0.78 | 0.733 | 0.663 | 0.72 |
| NCI-H1734 | 0.961 | 1.09 | 1.07 |  | 1.07 | 0.753 | 0.648 | 0.757 |  | 0.752 | 0.22 | 0.294 | 0.246 | 0.242 | 0.268 | 0.506 | 0.566 | 0.528 | 0.372 | 0.48 |
| NCI-H1755 | 1.03 | 0.959 | 0.984 | 0.936 | 1.04 | 0.878 | 0.818 | 1 | 0.79 | 0.886 | 0.664 | 0.627 | 0.517 | 0.436 | 0.557 | 0.718 | 0.758 | 0.691 | 0.604 | 0.689 |
| NCI-H1915 | 0.96 | 0.989 | 0.988 | 0.982 | 0.977 | 0.885 | 0.88 | 0.902 | 0.857 | 0.835 | 0.432 | 0.418 | 0.469 | 0.282 | 0.428 | 0.276 | 0.267 | 0.283 | 0.255 | 0.26 |
| NCI-H1944 | 0.928 | 0.861 | 0.784 | 0.544 | 0.92 | 1.16 | 1.12 | 1.25 | 0.926 | 1.02 | 0.252 | 0.27 | 0.247 |  | 0.242 | 0.448 | 0.445 | 0.399 |  | 0.425 |
| NCI-H1975 | 0.861 | 1.01 | 0.801 | 0.875 | 0.951 | 1.07 | 1.05 | 0.965 | 1.02 | 0.876 | 0.9 | 0.819 | 0.738 |  | 0.474 | 0.38 | 0.427 | 0.38 | 0.377 | 0.382 |
